Source: patent US7223788B2, “Substituted N-aryl heterocycles, process for their preparation and their use as medicaments” (Sanofi-Aventis Deutschland GmbH, priority 2003, dated 2007)

Tested on: female NMRI mice
Experiment: Anorectic effect: reduction in cumulative milk consumption after oral administration (gavage) to fasted mice
Format: in vivo
Conditions: oral dose 30 mg/kg by gavage, after withdrawal of food for 17 hours, condensed milk consumption over 7 hours, compared with vehicle-treated control
Procedure: The anorectic effect was tested on female NMRI mice. After withdrawal of food for 17 hours, the test product was administered by gavage. The animals were housed singly with free access to drinking water and were offered condensed milk 30 minutes after administration of the product. The condensed milk consumption was determined every half hour for 7 hours, and the general wellbeing of the animals was observed. The measured milk consumption was compared with the vehicle-treated control animals.

Row | SMILES | Reduction in the cumulative milk consumption as % of the control [%]
1 | CC(=O)N(C)C1CCN(c2ccc(NC(=O)N3CCC(c4ccc(Cl)cc4)CC3)cc2)C1 (centres unmarked) [Example 13, 4-(4-Chlorophenyl)piperidine-1-carboxylic acid {4-[3-(acetylmethylamino)-pyrrolidin-1-yl]phenyl}amide] | 64
2 | CC(=O)N(C)[C@@H]1CCN(c2ccc(NC(=O)Nc3ccc(Oc4ccccc4)cc3)cc2)C1 [Example 4, (R)-N-Methyl-N-(1-{4-[3-(4-phenoxyphenyl)ureido]phenyl}pyrrolidin-3-yl)acetamide] | 50
